These results are taken from paper PMC5374673, “Activity of the novel BCR kinase inhibitor IQS019 in preclinical models of B-cell non-Hodgkin lymphoma” (Journal of Hematology & Oncology, 2017).

Holding throughout (type): biochemical
One assay has as its target Lyn (Homo sapiens, UniProt P07948). Kind of assay: radiometric kinase assay and 400-kinase panel (ProQinase); also Ba/F3 cells expressing the kinase domain.
The target of another assay is T1, Bmx (Homo sapiens, UniProt P51813).
T1 sequence (P51813 1-675): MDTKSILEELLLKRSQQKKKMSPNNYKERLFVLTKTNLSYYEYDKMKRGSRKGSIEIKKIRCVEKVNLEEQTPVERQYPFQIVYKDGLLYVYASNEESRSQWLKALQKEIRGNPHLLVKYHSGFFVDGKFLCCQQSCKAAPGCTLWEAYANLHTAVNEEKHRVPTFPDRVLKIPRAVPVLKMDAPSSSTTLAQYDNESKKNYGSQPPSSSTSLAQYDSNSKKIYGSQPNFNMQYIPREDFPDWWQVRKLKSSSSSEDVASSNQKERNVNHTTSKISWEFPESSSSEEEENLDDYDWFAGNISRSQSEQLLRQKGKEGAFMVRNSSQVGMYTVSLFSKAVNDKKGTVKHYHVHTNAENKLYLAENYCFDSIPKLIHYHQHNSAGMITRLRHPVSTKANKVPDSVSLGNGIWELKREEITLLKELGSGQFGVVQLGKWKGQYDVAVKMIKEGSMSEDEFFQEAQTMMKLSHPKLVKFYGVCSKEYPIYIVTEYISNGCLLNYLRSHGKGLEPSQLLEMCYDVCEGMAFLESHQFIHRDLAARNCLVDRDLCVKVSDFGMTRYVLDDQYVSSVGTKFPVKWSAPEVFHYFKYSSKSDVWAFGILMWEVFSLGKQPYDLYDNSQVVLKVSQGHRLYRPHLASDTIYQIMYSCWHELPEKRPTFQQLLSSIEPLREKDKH
Nature of the assay: 400-kinase panel, residual activity at […].

Another assay concerns the target Syk (Homo sapiens, UniProt P43405). Nature of the assay: radiometric kinase assay and 400-kinase panel (ProQinase); also Ba/F3 cells expressing the kinase domain.
A further assay concerns the target Btk (Homo sapiens, UniProt Q06187). The assay is described as above.

Sequence of Btk (Q06187 2-659): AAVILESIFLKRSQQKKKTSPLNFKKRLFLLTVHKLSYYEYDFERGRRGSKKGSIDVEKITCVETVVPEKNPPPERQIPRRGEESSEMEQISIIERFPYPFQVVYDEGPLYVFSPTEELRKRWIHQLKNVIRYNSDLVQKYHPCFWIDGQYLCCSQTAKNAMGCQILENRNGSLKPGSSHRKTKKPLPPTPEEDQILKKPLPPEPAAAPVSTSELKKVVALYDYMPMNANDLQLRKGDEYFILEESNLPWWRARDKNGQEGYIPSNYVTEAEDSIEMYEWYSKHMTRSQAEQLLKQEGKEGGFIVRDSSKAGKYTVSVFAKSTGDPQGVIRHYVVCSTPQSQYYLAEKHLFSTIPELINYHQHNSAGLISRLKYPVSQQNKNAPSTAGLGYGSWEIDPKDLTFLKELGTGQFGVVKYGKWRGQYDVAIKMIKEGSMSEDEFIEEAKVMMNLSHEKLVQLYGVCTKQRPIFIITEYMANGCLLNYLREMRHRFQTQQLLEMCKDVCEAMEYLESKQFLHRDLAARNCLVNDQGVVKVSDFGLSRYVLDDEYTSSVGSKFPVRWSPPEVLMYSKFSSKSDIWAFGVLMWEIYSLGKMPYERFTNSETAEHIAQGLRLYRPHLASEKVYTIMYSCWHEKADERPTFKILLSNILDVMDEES
Sequence of Lyn (P07948 2-512): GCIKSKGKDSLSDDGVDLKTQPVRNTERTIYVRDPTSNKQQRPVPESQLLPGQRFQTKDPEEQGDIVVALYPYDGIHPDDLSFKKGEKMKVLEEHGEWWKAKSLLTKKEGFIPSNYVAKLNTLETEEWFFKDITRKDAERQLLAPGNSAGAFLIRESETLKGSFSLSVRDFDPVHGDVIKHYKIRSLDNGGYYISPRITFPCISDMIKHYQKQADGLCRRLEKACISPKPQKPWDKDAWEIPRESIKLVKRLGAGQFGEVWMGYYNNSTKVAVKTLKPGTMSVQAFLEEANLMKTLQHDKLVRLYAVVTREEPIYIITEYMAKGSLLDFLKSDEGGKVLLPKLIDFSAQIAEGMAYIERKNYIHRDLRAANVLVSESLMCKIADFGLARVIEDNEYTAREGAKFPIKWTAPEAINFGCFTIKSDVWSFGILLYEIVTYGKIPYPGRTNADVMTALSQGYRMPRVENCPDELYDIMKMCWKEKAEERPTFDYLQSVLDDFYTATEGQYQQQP

Turning to `CN1CCN(c2ccc(Nc3nc(N)c4cc(-c5c(Cl)cccc5Cl)c(=O)n(C)c4n3)cc2)CC1` [compound 19, IQS019], the half-inhibitory concentration (IC50) amounted to 150 nM against Lyn, 1600 nM against Syk and 2100 nM on Btk. Also, the “400-kinase panel, residual activity at 0.1 and 10 μM” value on Bmx is recorded as “the member of the Tec family of non-receptor tyrosine kinases, Bmx”.
